Consider 1 molecule from US9157908B2, “Chitosan-alginate scaffold cell culture system and related methods” (University of Washington through its Center for …, priority 2011, dated 2015).

One data set relates to HepG2 cells. The data set can be described thus: Cellular response to doxorubicin, cell viability by Alamar Blue assay. The data set is classed as cell-based, human. The following applies: for LD50 for doxorubicin: 72 hours post treatment; for viability at 1 µM: Homo sapiens, read-out: viability relative to untreated cells. On the procedure: (§1) Proliferation of cells cultured on 2D wells, Matrigel matrix, and CA scaffolds was determined using the Alamar Blue assay following the manufacturer's protocol. Briefly, cells cultured on 2D wells and 3D scaffolds were washed with D-PBS before adding 1 mL of Alamar Blue solution (10% Alamar Blue in fully supplemented phenol red free DMEM or MEM) to each well.
(§2) For human hepatocellular carcinoma cells, after 2 hrs the Alamar Blue solution was transferred to a 96-well plate to obtain fluorescent values on a SpectraMax M2 microplate reader (Molecular Devices, Sunnyvale, Calif.) at 550 nm excitation, 590 nm emission. Standard curves were generated by seeding cells counted using a hemocytometer onto cell culture materials in triplicate, and performing Alamar Blue assay to generate a plot of linear regression of fluorescent values vs. cell number for each material. The cell number in an experimental sample was calculated based on the standard curve. No background fluorescence was generated by CA scaffolds. Cells were again washed with D-PBS to remove Alamar Blue solution and fresh fully-supplemented media were added to each well.
(§3) For human hepatocellular carcinoma cell-containing scaffolds, after 10 days of culture, media from cell cultures were replaced with 1 mL fully supplemented cell culture media containing various concentrations of doxorubicin. Cells were induced with doxorubicin containing media for 24 h, after which media was replaced with standard fully supplemented cell culture media. Cell viability was assessed using the Alamar Blue assay following the manufacturer's protocol as described above. LD50 was estimated via a polynomial approximation.
(In general: Resazurin is reduced to fluorescent resorufin, in cell work by metabolically active cells.)

The subject of the next data set is PLC/PRF/5 (PLC) cells. Described as above. The data set is classed as cell-based, human. The following applies: 72 hours post treatment. How it is done:
as §1, §2, §3

For data set [1] the following is noted: cited from earlier work.

Where two headings read alike, the source gives them in different places.

The viability is the share of living cells, or the viability signal relative to a control. Take `COc1cccc2c1C(=O)c1c(O)c3c(c(O)c1C2=O)C[C@@](O)(C(=O)CO)C[C@@H]3O[C@H]1C[C@H](N)[C@H](O)[C@H](C)O1` [doxorubicin]: the LD50 for doxorubicin turned out to be 0.45 ± 0.18 µM in the data set on HepG2 cells (HepG2 cells cultured in 2D substrate), 13 ± 1.7 µM in the data set on HepG2 cells (HepG2 cells in CA) and 7 ± 2.2 µM in the data set with HepG2 cells (HepG2 cells in Matrigel). Moreover, the viability at 1 µM in the data set on HepG2 cells (HepG2, 48 h) came out at 86.7 ± 2.4%; in the data set with HepG2 cells (HepG2, 72 h) it was 88.6 ± 2.75%. Further, the values for the LD50 of doxorubicin with PLC/PRF/5 (PLC) cells (PLC cells CA cultured), in the data set with PLC/PRF/5 (PLC) cells (PLC cells Matrigel cultured) and in the data set with PLC/PRF/5 (PLC) cells (PLC cells cultured on 2D surfaces) were 4 ± 1.4 µM, 3 ± 1.1 µM and 0.2 ± 0.13 µM, respectively. In data set [1] (48 hours post treatment), the clearance from plasma entry is on record as “nearly complete clearance”. In data set [1] (standard dosing schemes, minutes after treatment), the peak plasma concentration entry is “approximately 15 μM”.
